Results: the supplement of paper PMC10307832

Key:
Assay in all cases: relative viability (nuclei count vs DMSO), 5 days (fraction); higher = more cells survive
Ispinesib + Dasatinib = compound: Cc1ccc(C(=O)N(CCCN)[C@@H](c2nc3cc(Cl)ccc3c(=O)n2Cc2ccccc2)C(C)C)cc1 [Ispinesib] + Cc1nc(Nc2ncc(C(=O)Nc3c(C)cccc3Cl)s2)cc(N2CCN(CCO)CC2)n1 [Dasatinib] (partner 0.075 µM)
Method in brief: (§1)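 The day after seeding in 1536-well plates, lung cancer cell lines were treated by pin tool with a single drug, or with a fixed anchor-drug dose together with five library-drug doses (not always all listed) in √10 steps. After 5 days, a combined fix-and-stain solution (final 0.05% Triton X-100, 1% formaldehyde, 1 ug/ml Hoechst) was added. Nuclei counted on 4× images gave relative viability as treated counts over vehicle counts, reported as the median of duplicate plates.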

Ispinesib + Alpelisib = compound: Cc1ccc(C(=O)N(CCCN)[C@@H](c2nc3cc(Cl)ccc3c(=O)n2Cc2ccccc2)C(C)C)cc1 [Ispinesib] + Cc1nc(NC(=O)N2CCC[C@H]2C(N)=O)sc1-c1ccnc(C(C)(C)C(F)(F)F)c1 [Alpelisib] (partner 2 µM)
Method in brief: as §1

Linsitinib + OSI-027 = compound: C[C@]1(O)C[C@@H](c2nc(-c3ccc4ccc(-c5ccccc5)nc4c3)c3c(N)nccn32)C1 [Linsitinib] + COc1cccc2cc(-c3nc([C@H]4CC[C@H](C(=O)O)CC4)n4ncnc(N)c34)[nH]c12 [OSI-027] (partner 0.5 µM)
Method in brief: as §1

Cell Line	relative viability (Ispinesib + Dasatinib; first compound 0.001 µM)	relative viability (Ispinesib + Dasatinib; first compound 0.003162 µM)	relative viability (Ispinesib + Dasatinib; first compound 0.01 µM)	relative viability (Ispinesib + Dasatinib; first compound 0.03162 µM)	relative viability (Ispinesib + Dasatinib; first compound 0.1 µM)	relative viability (Ispinesib + Alpelisib; first compound 0.003162 µM)	relative viability (Ispinesib + Alpelisib; first compound 0.01 µM)	relative viability (Ispinesib + Alpelisib; first compound 0.03162 µM)	relative viability (Ispinesib + Alpelisib; first compound 0.1 µM)	relative viability (Linsitinib + OSI-027; first compound 0.01 µM)	relative viability (Linsitinib + OSI-027; first compound 0.03162 µM)	relative viability (Linsitinib + OSI-027; first compound 0.1 µM)	relative viability (Linsitinib + OSI-027; first compound 0.3162 µM)	relative viability (Linsitinib + OSI-027; first compound 1 µM)	relative viability (Ispinesib + Alpelisib; first compound 0.001 µM)
NCI-H727	0.536	0.221	0.434	0.472	0.388	0.565	0.545	0.486	0.404	0.609	0.597	0.608	0.347	0.358	–
NCI-H1993	0.617	0.373	0.634	0.548	0.584	0.637	0.709	0.663	0.596	0.502	0.534	0.525	0.407	0.679	0.697
EMC-BAC-2	0.354	0.236	0.351	0.257	0.19	0.752	0.917	0.548	0.526	0.365	0.377	0.336	0.341	0.247	0.815
NCI-H1563	0.395	0.483	0.469	0.417	0.378	0.949	0.944	0.838	0.705	0.695	0.786	0.714	0.87	0.63	0.972
NCI-H2087	0.998	0.841	0.963	0.39	0.117	1.2	1.28	1.02	0.159	0.691	0.582	0.463	0.362	0.182	0.992
NCI-H441	0.713	0.634	0.453	0.293	0.266	0.848	0.947	0.238	0.215	0.672	0.616	0.546	0.307	0.312	0.934
LXF-289	0.308	0.215	0.197	0.209	0.0629	1.05	1.16	0.993	0.733	0.769	0.757	0.795	–	0.515	1.06
NCI-H661	0.999	0.982	0.921	0.353	0.251	0.972	0.745	0.369	0.508	0.732	0.651	0.652	0.6	0.516	0.593
PC-3 [JPC-3]	1.11	1.06	1.14	0.868	0.578	1.09	1.07	1.06	1.11	0.709	0.79	0.664	0.651	0.463	0.992
HCC-366	0.701	0.74	0.733	0.704	0.0265	0.393	0.535	0.47	0.135	1.03	0.999	0.888	0.821	0.235	0.733
NCI-H1651	0.655	0.497	0.479	0.334	0.136	0.99	1.26	1.05	0.206	0.646	0.654	0.646	0.581	0.543	0.957
NCI-H1355	0.82	0.836	0.625	0.379	0.423	0.866	0.979	0.596	0.859	0.419	0.41	0.307	0.244	0.226	0.841
LC-2-ad	0.566	0.716	0.737	0.318	0.133	0.94	1.06	0.697	0.268	0.803	0.827	0.684	0.414	0.422	0.932
NCI-H1944	0.214	0.266	0.211	0.184	0.104	0.803	0.851	0.508	0.634	0.427	0.474	0.393	0.315	0.217	0.861
HCC-827	0.36	0.318	0.317	0.292	0.263	1	0.981	0.922	0.814	0.769	0.836	0.821	–	0.771	0.91
COR-L23	0.564	0.498	0.474	0.0917	0.172	0.948	1.08	0.144	0.16	0.626	0.968	0.804	0.52	0.509	0.827
NCI-H3122	0.944	0.917	0.973	0.759	0.127	0.86	0.778	0.897	0.223	0.994	0.868	1.03	–	0.487	0.783
NCI-H2170	0.639	0.583	0.58	0.294	0.201	0.765	0.947	0.603	0.484	0.752	0.756	0.708	0.417	0.638	0.892
NCI-H1793	0.361	0.412	0.451	0.334	0.141	0.713	1.17	0.783	0.328	0.25	0.314	0.246	0.205	0.175	0.677
BEN	0.36	0.371	0.307	0.248	0.141	1.13	1.12	0.758	0.353	0.346	0.27	0.258	–	0.249	1.06
NCI-H647	0.176	0.173	0.122	0.0516	0.0877	1.26	1.66	0.192	0.14	0.679	0.658	0.582	–	0.428	1.38
PC-14	0.221	0.188	0.0739	0.0649	0.133	1.05	1.05	0.942	0.174	0.746	0.706	0.798	0.568	0.546	1.01
HCC-78	0.388	0.542	0.464	0.348	0.267	0.393	0.38	–	0.268	0.377	0.379	0.31	0.377	0.347	0.358
NCI-H1666	0.864	0.894	0.776	0.594	0.419	0.936	0.988	0.567	0.388	0.772	0.957	0.759	0.476	0.434	1.07
COR-L 105	0.462	0.303	0.31	0.195	0.238	0.952	0.89	0.562	0.35	0.64	0.578	0.603	0.596	0.381	1.15
LU99A	0.676	0.519	0.558	0.363	0.203	0.572	0.66	0.318	0.208	0.32	0.314	0.299	0.245	0.24	0.527
NCI-H596	0.573	0.589	0.62	0.641	0.334	0.427	0.583	0.458	0.394	0.7	0.694	0.802	0.674	0.448	0.563
201T	0.538	0.599	0.735	0.56	0.307	1.01	1.06	0.996	0.955	0.808	0.799	1.01	0.829	0.342	1.07
HCC-15	0.711	0.662	0.604	0.371	0.21	0.955	1.06	0.83	0.358	0.677	0.677	0.616	–	0.246	0.92
